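Dose response: 5 concentrations. Exposure: 48 h. Format: 96-well plates. Endpoint: linear interpolation; highest concentration if not reached. TGI: concentration producing complete growth inhibition.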
Tests used:
Assay in all cases: NCI tumour cell line growth inhibition, 48 h
SF-295 CNS = test system: SF-295 CNS
HCC-2998 colon = test system: HCC-2998 colon
HCT-116 colon = test system: HCT-116 colon
OVCAR-4 ovarian = test system: OVCAR-4 ovarian
T-47D breast = test system: T-47D breast
HCT-15 colon = test system: HCT-15 colon
CCRF-CEM leukemia = test system: CCRF-CEM leukemia
CAKI-1 renal = test system: CAKI-1 renal
M14 melanoma = test system: M14 melanoma
NCI-H226 lung = test system: NCI-H226 lung
U251 CNS = test system: U251 CNS
UACC-62 melanoma = test system: UACC-62 melanoma
LOX IMVI melanoma = test system: LOX IMVI melanoma
SK-OV-3 ovarian = test system: SK-OV-3 ovarian
RPMI-8226 leukemia = test system: RPMI-8226 leukemia
SR leukemia = test system: SR leukemia
HT29 colon = test system: HT29 colon
K-562 leukemia = test system: K-562 leukemia
OVCAR-3 ovarian = test system: OVCAR-3 ovarian
HOP-92 NSCLC = test system: HOP-92 NSCLC
HS 578T breast = test system: HS 578T breast
SF-268 CNS = test system: SF-268 CNS
SW-620 colon = test system: SW-620 colon
A549 NSCLC = test system: A549 NSCLC
MOLT-4 leukemia = test system: MOLT-4 leukemia
SNB-19 CNS = test system: SNB-19 CNS
UO-31 renal = test system: UO-31 renal
NCI-H522 lung = test system: NCI-H522 lung
KM12 colon = test system: KM12 colon
DU-145 prostate = test system: DU-145 prostate
ACHN renal = test system: ACHN renal
MALME-3M melanoma = test system: MALME-3M melanoma
SF-539 CNS = test system: SF-539 CNS
786-0 renal = test system: 786-0 renal
MCF7 breast = test system: MCF7 breast
NCI-H23 lung = test system: NCI-H23 lung
MDA-N = test system: MDA-N
NCI/ADR-RES ovarian = test system: NCI/ADR-RES ovarian
SK-MEL-28 melanoma = test system: SK-MEL-28 melanoma
HL-60(TB) leukemia = test system: HL-60(TB) leukemia
RXF 393 renal = test system: RXF 393 renal
EKVX NSCLC = test system: EKVX NSCLC
COLO 205 colon = test system: COLO 205 colon
HOP-62 NSCLC = test system: HOP-62 NSCLC
SK-MEL-5 melanoma = test system: SK-MEL-5 melanoma
OVCAR-5 ovarian = test system: OVCAR-5 ovarian
A498 renal = test system: A498 renal
OVCAR-8 ovarian = test system: OVCAR-8 ovarian
SN12C renal = test system: SN12C renal
SK-MEL-2 melanoma = test system: SK-MEL-2 melanoma
UACC-257 melanoma = test system: UACC-257 melanoma
PC-3 prostate = test system: PC-3 prostate
MDA-MB-435 = test system: MDA-MB-435
IGROV1 ovarian = test system: IGROV1 ovarian
SNB-75 CNS = test system: SNB-75 CNS
MDA-MB-231 breast = test system: MDA-MB-231 breast
TK-10 renal = test system: TK-10 renal
NCI-H460 lung = test system: NCI-H460 lung

COc1ccc(CCNC(=S)/N=C\C2=C(O)c3ccccc3C2=O)cc1OC
TGI (SF-295 CNS): > 100 µM | TGI (HCC-2998 colon): > 100 µM | TGI (HCT-116 colon): > 100 µM | TGI (OVCAR-4 ovarian): > 100 µM | TGI (T-47D breast): > 100 µM | TGI (HCT-15 colon): > 100 µM | TGI (CCRF-CEM leukemia): > 100 µM | TGI (CAKI-1 renal): > 100 µM | TGI (M14 melanoma): > 100 µM | TGI (NCI-H226 lung): > 100 µM | TGI (U251 CNS): > 100 µM | TGI (UACC-62 melanoma): > 100 µM | TGI (LOX IMVI melanoma): > 100 µM | TGI (SK-OV-3 ovarian): > 100 µM | TGI (RPMI-8226 leukemia): > 100 µM | TGI (SR leukemia): > 100 µM | TGI (HT29 colon): > 100 µM | TGI (K-562 leukemia): > 100 µM | TGI (OVCAR-3 ovarian): 0.746 µM | TGI (HOP-92 NSCLC): 8.92 µM | TGI (HS 578T breast): 72.7 µM | TGI (SF-268 CNS): > 100 µM | TGI (SW-620 colon): > 100 µM | TGI (A549 NSCLC): > 100 µM | TGI (MOLT-4 leukemia): > 100 µM | TGI (SNB-19 CNS): > 100 µM | TGI (UO-31 renal): > 100 µM | TGI (NCI-H522 lung): > 100 µM | TGI (KM12 colon): > 100 µM | TGI (DU-145 prostate): > 100 µM | TGI (ACHN renal): > 100 µM | TGI (MALME-3M melanoma): > 100 µM | TGI (SF-539 CNS): > 100 µM | TGI (786-0 renal): > 100 µM | TGI (MCF7 breast): > 100 µM | TGI (NCI-H23 lung): > 100 µM | TGI (MDA-N): > 100 µM | TGI (NCI/ADR-RES ovarian): > 100 µM | TGI (SK-MEL-28 melanoma): > 100 µM | TGI (HL-60(TB) leukemia): > 100 µM | TGI (RXF 393 renal): > 100 µM | TGI (EKVX NSCLC): > 100 µM | TGI (COLO 205 colon): > 100 µM | TGI (HOP-62 NSCLC): > 100 µM | TGI (SK-MEL-5 melanoma): > 100 µM | TGI (OVCAR-5 ovarian): > 100 µM | TGI (A498 renal): > 100 µM | TGI (OVCAR-8 ovarian): > 100 µM | TGI (SN12C renal): > 100 µM | TGI (SK-MEL-2 melanoma): > 100 µM | TGI (UACC-257 melanoma): > 100 µM | TGI (PC-3 prostate): > 100 µM | TGI (MDA-MB-435): > 100 µM | TGI (IGROV1 ovarian): > 100 µM | TGI (SNB-75 CNS): > 100 µM | TGI (MDA-MB-231 breast): > 100 µM

O=C(OCc1c(-c2ccccc2)nn(-c2ccccc2)c1COC(=O)Oc1ccccc1)Oc1ccccc1
TGI (SF-295 CNS): > 100 µM | TGI (HCC-2998 colon): > 100 µM | TGI (HCT-116 colon): > 100 µM | TGI (OVCAR-4 ovarian): > 100 µM | TGI (T-47D breast): > 100 µM | TGI (HCT-15 colon): > 100 µM | TGI (CCRF-CEM leukemia): > 100 µM | TGI (CAKI-1 renal): > 100 µM | TGI (M14 melanoma): > 100 µM | TGI (NCI-H226 lung): > 100 µM | TGI (U251 CNS): > 100 µM | TGI (UACC-62 melanoma): > 100 µM | TGI (LOX IMVI melanoma): > 100 µM | TGI (SK-OV-3 ovarian): > 100 µM | TGI (RPMI-8226 leukemia): > 100 µM | TGI (SR leukemia): > 100 µM | TGI (HT29 colon): > 100 µM | TGI (TK-10 renal): > 100 µM | TGI (K-562 leukemia): > 100 µM | TGI (OVCAR-3 ovarian): > 100 µM | TGI (HOP-92 NSCLC): > 100 µM | TGI (HS 578T breast): > 100 µM | TGI (SF-268 CNS): > 100 µM | TGI (SW-620 colon): > 100 µM | TGI (A549 NSCLC): > 100 µM | TGI (MOLT-4 leukemia): > 100 µM | TGI (SNB-19 CNS): > 100 µM | TGI (NCI-H460 lung): > 100 µM | TGI (NCI-H522 lung): > 100 µM | TGI (KM12 colon): > 100 µM | TGI (DU-145 prostate): > 100 µM | TGI (ACHN renal): > 100 µM | TGI (MALME-3M melanoma): > 100 µM | TGI (SF-539 CNS): > 100 µM | TGI (786-0 renal): > 100 µM | TGI (MCF7 breast): > 100 µM | TGI (NCI-H23 lung): > 100 µM | TGI (MDA-N): > 100 µM | TGI (NCI/ADR-RES ovarian): > 100 µM | TGI (SK-MEL-28 melanoma): > 100 µM | TGI (HL-60(TB) leukemia): > 100 µM | TGI (RXF 393 renal): > 100 µM | TGI (EKVX NSCLC): > 100 µM | TGI (COLO 205 colon): > 100 µM | TGI (HOP-62 NSCLC): > 100 µM | TGI (SK-MEL-5 melanoma): > 100 µM | TGI (OVCAR-5 ovarian): > 100 µM | TGI (A498 renal): > 100 µM | TGI (OVCAR-8 ovarian): > 100 µM | TGI (SN12C renal): > 100 µM | TGI (UACC-257 melanoma): > 100 µM | TGI (PC-3 prostate): > 100 µM | TGI (MDA-MB-435): > 100 µM | TGI (IGROV1 ovarian): > 100 µM | TGI (SNB-75 CNS): > 100 µM | TGI (MDA-MB-231 breast): > 100 µM
